In patent publication US20260159528A1, “HETEROCYCLIC COMPOUNDS AS TRIGGERING RECEPTOR EXPRESSED ON MYELOID CELLS 2 AGONISTS AND METHODS OF USE” (Vigil Neuroscience, Inc., priority 2021, published 2026):

Target: T1, human TREM2 (Homo sapiens, UniProt Q9NZC2)
T1 construct: expressed in transfected cells; host or cells: HEK293T
Assay: TREM2 agonist potency by cellular Syk phosphorylation (AlphaLisa) in HEK293T-hTREM2 cells
Type: cell-based
Conditions: Table D-2; HEK293 cells expressing human TREM2 and DAP12; pSyk AlphaLisa
Procedure: In vitro Measurement of Triggering Receptor Expressed on Myeloid Cells 2 activity using cellular phosphorylation of Spleen Tyrosine Kinase (“Syk”) Assays
Measurement of TREM2 agonist potency was done using a HEK cell line expressing human TREM2 and DAP12 (HEK293T-hTREM2 cells). Binding of small molecules to, and activation of, TREM2 increases the phosphorylation of Syk. The resultant levels of Syk phosphorylation are measured using a commercial AlphaLisa reagent kit. To perform the assay, HEK-hTREM2 cells were plated at 14,000 cells per well in a 384 well plate, in 25 µL of complete growth media and incubated at 37° C., 5% CO2 for 20-24 hours.
Prior to the assay, test compounds were diluted in the 384 well plates in assay buffer and allowed to equilibrate for 30 minutes. Growth media was removed from cell plates by inversion on blotting paper, and 25 μL of test articles in assay buffer was added to cells. Cells were incubated for 45 minutes at room temperature. After 45 minutes, assay buffer was removed and 10 μL of lysis buffer was added. Plates were shaken for 20 minutes at 350 RPM at room temperature. After complete lysis, AlphaLisa reagents were added to the lysate, and fluorescence intensity was measured using a Perkin Elmer Envision plate reader. Intensities were used to generate a standard curve, and % activation was calculated. Curve fitting was performed using Prism v9 software, log(agonist) vs response—variable slope (four parameters), and EC50s were calculated from the curve fit.
The results presented in Table D have been generated with the in vitro assay described above. This assay may be used to test any of the compounds described herein to assess and characterize a compound's ability to act as an agonist of TREM2.

T1 sequence (Q9NZC2 19-230): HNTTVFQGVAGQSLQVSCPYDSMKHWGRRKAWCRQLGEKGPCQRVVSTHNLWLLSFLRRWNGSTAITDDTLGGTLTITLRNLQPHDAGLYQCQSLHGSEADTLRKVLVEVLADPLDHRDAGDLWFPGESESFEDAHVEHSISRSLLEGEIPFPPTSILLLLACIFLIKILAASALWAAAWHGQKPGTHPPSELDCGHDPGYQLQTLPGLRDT
T1 sequence (O43914 22-113 partner): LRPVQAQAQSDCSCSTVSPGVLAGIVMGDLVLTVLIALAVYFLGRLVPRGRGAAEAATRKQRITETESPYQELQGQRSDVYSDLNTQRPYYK

| SMILES | EC50 |
| --- | --- |
| C[C@@H]1CN(c2nc(-c3c(F)cc(F)cc3F)c3sc(N(C)C)nc3n2)C[C@H](c2cnn(C3CC3)c2)O1 [Compound I-240, 5-[(2S,6R)-2-(1-cyclopropylpyrazol-4-yl)-6-methyl-morpholin-4-yl]-N,N-dimethyl-7-(2,4,6-trifluorophenyl)thiazolo[4,5-d]pyrimidin-2-amine] | ≤ 0.05 µM |
| CN(C)c1nc2nc(N3CCC(F)(F)C(c4cnn(C5CC5)c4)C3)nc(-c3ccc(F)cc3F)c2s1 (stereo not drawn) [Compound I-245, 5-(3-(1-cyclopropyl-1H-pyrazol-4-yl)-4,4-difluoropiperidin-1-yl)-7-(2,4-difluorophenyl)-N,N-dimethylthiazolo[4,5-d]pyrimidin-2-amine] | ≤ 0.05 µM |
| CS(=O)(=O)c1nc2nc([C@H]3CCO[C@@H](c4cnn(C5CC5)c4)C3)nc(-c3ccc(C(F)(F)F)cc3N3CCC3)c2s1 [Compound I-253, 7-[2-(azetidin-1-yl)-4-(trifluoromethyl)phenyl]-5-[(2R,4S)-2-(1-cyclopropylpyrazol-4-yl)tetrahydropyran-4-yl]-2-methylsulfonyl-thiazolo[4,5-d]pyrimidine] | 0.05 to 0.5 µM |
| C[C@@H]1CN(c2nc(-c3ccc(C(F)(F)F)cc3F)c3sc(N(C)C)nc3n2)C[C@H](c2cnn(C3CC3)c2)O1 [Compound I-258, 5-[(2S,6R)-2-(1-cyclopropylpyrazol-4-yl)-6-methyl-morpholin-4-yl]-7-[2-fluoro-4-(trifluoromethyl)phenyl]-N,N-dimethyl-thiazolo[4,5-d]pyrimidin-2-amine] | ≤ 0.05 µM |
| Cc1cc([C@H]2CN(c3nc(-c4ccc(C(F)(F)F)cc4F)c4sc(N(C)C)nc4n3)C[C@@H](C)O2)ccn1 [Compound I-263, 7-[2-fluoro-4-(trifluoromethyl)phenyl]-N,N-dimethyl-5-[(2R,6S)-2-methyl-6-(2-methyl-4-pyridyl)morpholin-4-yl]thiazolo[4,5-d]pyrimidin-2-amine] | 0.05 to 0.5 µM |
| Cc1cc([C@H]2C[C@H](c3nc(-c4ccc(F)cc4F)c4sc(N(C)C)nc4n3)CCO2)ccn1 [Compound I-269, 7-(2,4-difluorophenyl)-N,N-dimethyl-5-[(2R,4R)-2-(2-methyl-4-pyridyl)tetrahydropyran-4-yl]thiazolo[4,5-d]pyrimidin-2-amine] | 0.05 to 0.5 µM |
| Cn1c(N2CCC2)nc2nc([C@H]3CCO[C@@H](c4cnn(C5CC5)c4)C3)nc(-c3ccc(F)cc3F)c21 [Compound I-293, 8-(azetidin-1-yl)-2-((2R,4S)-2-(1-cyclopropyl-1H-pyrazol-4-yl)tetrahydro-2H-pyran-4-yl)-6-(2,4-difluorophenyl)-7-methyl-7H-purine] | 0.05 to 0.5 µM |
| CN(c1nc2nc([C@H]3CCO[C@@H](c4cnn(C5CC5)c4)C3)nc(-c3ccc(F)cc3F)c2n1C)C1CC1 [Compound I-298] | 0.05 to 0.5 µM |

Other lines, results leading:

| EC50 | SMILES |
| --- | --- |
| 0.05 to 0.5 µM | Cc1cc([C@H]2C[C@@H](c3nc(-c4ccc(F)cc4F)c4sc(N(C)C)nc4n3)CCO2)ccn1 [Compound I-268, 7-(2,4-difluorophenyl)-N,N-dimethyl-5-[(2R,4S)-2-(2-methyl-4-pyridyl)tetrahydropyran-4-yl]thiazolo[4,5-d]pyrimidin-2-amine] |
| ≤ 0.05 µM | C[C@@H]1CN(c2nc(-c3cc(F)c(F)cc3F)c3sc(N(C)C)nc3n2)C[C@H](c2cnn(C3CC3)c2)O1 [Compound I-273, 5-[(2S,6R)-2-(1-cyclopropylpyrazol-4-yl)-6-methyl-morpholin-4-yl]-N,N-dimethyl-7-(2,4,5-trifluorophenyl)thiazolo[4,5-d]pyrimidin-2-amine] |
| ≤ 0.05 µM | C[C@@H]1CN(c2nc(-c3ccc(C(F)(F)F)cc3F)c3c(n2)nc(N(C)C)n3C)C[C@H](c2cnn(C3CC3)c2)O1 [Compound I-283, 2-((2S,6R)-2-(1-cyclopropyl-1H-pyrazol-4-yl)-6-methylmorpholino)-6-(2-fluoro-4-(trifluoromethyl)phenyl)-N,N,7-trimethyl-7H-purin-8-amine] |
| 0.05 to 0.5 µM | CN(C)c1nc2nc([C@H]3CCO[C@@H](c4cnn(C5CC5)c4)C3)nc(-c3ccc(F)cc3F)c2n1C [Compound I-303, 2-((2R,4S)-2-(1-cyclopropyl-1H-pyrazol-4-yl)tetrahydro-2H-pyran-4-yl)-6-(2,4-difluorophenyl)-N,N,7-trimethyl-7H-purin-8-amine] |
